Results published in patent publication US20110263693A1, “CELASTROL, GEDUNIN, AND DERIVATIVES THEREOF AS HSP90 INHIBITORS” (DANA-FARBER CANCER INSTITUTE, INC., priority 2006, published 2011).
Like-named read-outs stand apart in the source and are kept apart here. Residues, ends and D or L forms follow the SMILES beside them. *: point of attachment. Cbz = O=C(OCc1ccccc1)*

Tests used:
[1] = test system: celastrol signature; test: Connectivity Map query with the celastrol signature; type: cell-based, human; parameters: key to celastrol score (connectivity score): connectivity score, based on Kolmogorov-Smirnov statistic
Description: (§1) Indeed, a major challenge in cell-based chemical biology and chemical genomics is the identification of compounds' targets (Gardner et al., 2003). We hypothesized that gene expression signatures could be used to identify compound action based on the similarity of such compound-induced signatures to signatures of existing drugs of known mechanism. We therefore employed a collection of gene expression profiles of drug-treated cell lines that was developed in our lab, termed the Connectivity Map (Lamb et al., 2006). This database comprises 453 genome-wide Affymetrix expression profiles derived from the treatment of human cell lines with 164 small molecules, primarily FDA-approved drugs. A 6 hr treatment time was chosen in an attempt to capture the primary, and potentially mechanistic, effects of the compounds rather than the downstream phenotypic consequences.
(§2) In order to use the Connectivity Map to gain insight into celastrol and gedunin function, we first defined a gene expression signature of celastrol and gedunin activity. The expression signatures of celastrol and gedunin were derived by expression profiling of RNA from LNCaP cells treated with celastrol (1.25 μM), gedunin (20 μM), and vehicle (DMSO) for 6 hr; signatures were defined using comparative marker selection to identify transcripts that distinguished between the compound- and vehicle-treated profiles by the signal-to-noise (SNR) metric. The enrichment of these signatures in the gene expression profiles of the Connectivity Map database was then assessed using a gene enrichment metric, the connectivity score, based on the Kolmogorov-Smirnov statistic (Lamb et al., 2003).
(§3) The celastrol and gedunin signatures were developed from RMA-processed microarray data from LNCaP cells treated with 1.25 μM celastrol or 20 μM gedunin for 6 hours. Comparative marker selection was used to identify markers that distinguished celastrol- and/or gedunin-treated samples from vehicle-treated samples by the median SNR (Golub et al., 1999). The top 50 markers that increased and decreased relative to vehicle-treated controls were used as the signatures.
(§4) The current version of the Connectivity Map data set (build01) contains genome-wide expression data for 453 treatment and vehicle control pairs, representing 164 distinct small molecules. Cell treatments and Affymetrix profiling were predominantly carried out in MCF7 cells with 6 hr treatments as detailed (Table 4) (Lamb et al., 2006). Enrichment of the induced and repressed genes of a signature within each Connectivity Map treatment profile was estimated with a metric based on the Kolmogorov-Smirnov statistic as described (Lamb et al., 2003, Lamb et al., 2006). Connectivity Map data are available at www.broad.mit.edu/cmap/ and GEO (accession number GSE5258).
(§5) For the celastrol and gedunin signatures, RMA-processed data was filtered and thresholded (min fold change=2, min absolute change=50, floor=10, ceiling=16000). Comparative marker selection (GenePattern) was used to identify markers that distinguished celastrol- and/or gedunin-treated samples from vehicle-treated samples by the median SNR. The top fifty markers that increased and decreased relative to vehicle treated controls were used as the celastrol, gedunin, or joint celastrol/gedunin signatures.
(§6) The current version of The Connectivity Map dataset (build01) contains genome-wide expression data for 453 treatment and vehicle control pairs, representing 164 distinct small molecules. Cell treatments were predominantly carried out in the MCF7 cell line for 6 h as detailed in Table 4. Affymetrix profiling was then carried out as described (Lamb et al., 2006).

[2] = test system: gedunin signature; test: Connectivity Map query with the gedunin signature; type: cell-based, human; parameters: key to gedunin score (connectivity score): connectivity score, based on Kolmogorov-Smirnov statistic
Description: as §1, §2, §3, §4, §5, §6

[3] = enrichment of the celastrol signature (1.25 μM celastrol at 6 h, LNCaP) in the compound's Connectivity Map profiles, 6 hr treatment
[4] = rank by celastrol score among 164 Connectivity Map compounds
[5] = enrichment of the gedunin signature (20 μM gedunin at 6 hours, LNCaP) in the compound's Connectivity Map profiles, 6 hr treatment
[6] = rank by gedunin score among 164 Connectivity Map compounds

Nc1c(O)cccc1C(=O)CC(N)C(=O)O (racemic) [3-hydroxy-DL-kynurenine]
celastrol score (connectivity score) [1, 3]: 0 | celastrol rank [1, 4]: 136 | gedunin score (connectivity score) [2, 5]: 0 | gedunin rank [2, 6]: 96

CCCCCCCCCCCCCCCC(=O)N[C@H](CN1CCOCC1)[C@H](O)c1ccccc1 (racemic) [DL-PPMP]
celastrol score (connectivity score) [1, 3]: 0 | celastrol rank [1, 4]: 138 | gedunin score (connectivity score) [2, 5]: 0 | gedunin rank [2, 6]: 110

Oc1cc(O)c2c(c1)OC(c1ccc(O)c(O)c1)C(O)C2 (single isomer, unassigned; (-)) [(−)-catechin]
celastrol score (connectivity score) [1, 3]: 0 | celastrol rank [1, 4]: 113 | gedunin score (connectivity score) [2, 5]: 0.457 | gedunin rank [2, 6]: 24

Oc1cccc2c(O)nccc12 [1,5-isoquinolinediol]
celastrol score (connectivity score) [1, 3]: −0.608 | gedunin score (connectivity score) [2, 5]: 0

O=CC[C@@H](O)[C@H](O)[C@H](O)CO [2-deoxy-D-glucose]
celastrol score (connectivity score) [1, 3]: 0 | gedunin score (connectivity score) [2, 5]: 0.378

NC(=O)c1cccc(N)c1 [3-aminobenzamide]
celastrol score (connectivity score) [1, 3]: −0.587 | gedunin score (connectivity score) [2, 5]: 0

O=C1NC(=O)c2cc(Nc3ccccc3)c(Nc3ccccc3)cc21 [4,5-dianilinophthalimide]
celastrol score (connectivity score) [1, 3]: 0 | gedunin score (connectivity score) [2, 5]: 0

CCCCC/C=C/C=C1/C(=O)C=C[C@@H]1C/C=C\CCCC(=O)O [15-delta prostaglandin J2]
celastrol score (connectivity score) [1, 3]: 0.76 | celastrol rank [1, 4]: 7 | gedunin score (connectivity score) [2, 5]: 0.565 | gedunin rank [2, 6]: 9

C[C@@H]1NC(=O)[C@H]2CCCN2C(=O)[C@H](CCCCCC(=O)[C@@H]2CO2)NC(=O)[C@@H](C)NC1=O [HC toxin]
celastrol score (connectivity score) [1, 3]: 0 | celastrol rank [1, 4]: 90 | gedunin score (connectivity score) [2, 5]: 0.526 | gedunin rank [2, 6]: 15

CC(=O)OCOC(c1ccc2ccccc2c1)P(=O)(OCOC(C)=O)OCOC(C)=O (stereo not drawn) [HNMPA-(AM)3]
celastrol score (connectivity score) [1, 3]: 0 | celastrol rank [1, 4]: 103 | gedunin score (connectivity score) [2, 5]: 0.365 | gedunin rank [2, 6]: 36

O=c1cc(N2CCOCC2)oc2c(-c3ccccc3)cccc12 [LY-294002]
celastrol score (connectivity score) [1, 3]: −0.512 | gedunin score (connectivity score) [2, 5]: 0

CC(C)C[C@@H](C=O)NC(=O)[C@H](CC(C)C)NC(=O)[C@H](CC(C)C)NC(=O)OCc1ccccc1 [MG-132] (Cbz-Leu-Leu-Leu-aldehyde)
celastrol score (connectivity score) [1, 3]: 0.902 | gedunin score (connectivity score) [2, 5]: 0.912

CC(C)c1ccc2c(c1)c(SC(C)(C)C)c(CC(C)(C)C(=O)O)n2Cc1ccc(Cl)cc1 [MK-886]
celastrol score (connectivity score) [1, 3]: 0 | celastrol rank [1, 4]: 94 | gedunin score (connectivity score) [2, 5]: −0.336 | gedunin rank [2, 6]: 155

O=C(O)c1ccccc1Nc1ccccc1 [N-phenylanthranilic acid]
celastrol score (connectivity score) [1, 3]: 0 | gedunin score (connectivity score) [2, 5]: −0.472

Cc1nc2c(O)cccc2c(=O)[nH]1 [NU-1025]
celastrol score (connectivity score) [1, 3]: −0.362 | celastrol rank [1, 4]: 156 | gedunin score (connectivity score) [2, 5]: −0.222 | gedunin rank [2, 6]: 152

CS(=O)(=O)c1ccc(-n2nc(C(F)(F)F)cc2-c2ccc(F)cc2)cc1 [SC-58125]
celastrol score (connectivity score) [1, 3]: −0.112 | gedunin score (connectivity score) [2, 5]: 0.09

C/C(=C\c1ccc(C(=O)O)cc1)c1ccc2c(c1)C(C)(C)CCC2(C)C [TTNPB]
celastrol score (connectivity score) [1, 3]: 0 | celastrol rank [1, 4]: 97 | gedunin score (connectivity score) [2, 5]: 0.095 | gedunin rank [2, 6]: 74

N#CC(=C(N)Sc1ccccc1)C(C#N)=C(N)Sc1ccccc1 [U0125]
celastrol score (connectivity score) [1, 3]: 0 | celastrol rank [1, 4]: 106 | gedunin score (connectivity score) [2, 5]: 0 | gedunin rank [2, 6]: 122

C[C@@H](N)[C@H]1CC[C@H](C(=O)Nc2ccncc2)CC1 [Y-27632]
celastrol score (connectivity score) [1, 3]: 0 | gedunin score (connectivity score) [2, 5]: −0.353

CC(=O)Oc1ccccc1C(=O)O [acetylsalicylic acid]
celastrol score (connectivity score) [1, 3]: 0.154 | gedunin score (connectivity score) [2, 5]: 0

C[C@]12CC[C@@H]3c4ccc(O)cc4CC[C@H]3[C@@H]1CC[C@H]2O [alpha-estradiol]
celastrol score (connectivity score) [1, 3]: −0.066 | gedunin score (connectivity score) [2, 5]: 0.045

CN(C)CCC=C1c2ccccc2CCc2ccccc21 [amitriptyline]
celastrol score (connectivity score) [1, 3]: 0 | gedunin score (connectivity score) [2, 5]: 0

CCCCC/C=C\C/C=C\C/C=C\C/C=C\CCCC(=O)O [arachidonic acid]
celastrol score (connectivity score) [1, 3]: 0 | gedunin score (connectivity score) [2, 5]: −0.222

Cn1cnc([N+](=O)[O-])c1Sc1ncnc2nc[nH]c12 [azathioprine]
celastrol score (connectivity score) [1, 3]: 0.552 | gedunin score (connectivity score) [2, 5]: 0.361

NC(CO)C(=O)NNCc1ccc(O)c(O)c1O (stereo not drawn) [benserazide]
celastrol score (connectivity score) [1, 3]: 0 | gedunin score (connectivity score) [2, 5]: −0.441

Cc1ccc2c(c1)C(=O)C1(O)CCN(c3ccccc3)C1=N2 (stereo not drawn) [blebbistatin]
celastrol score (connectivity score) [1, 3]: 0 | celastrol rank [1, 4]: 87 | gedunin score (connectivity score) [2, 5]: 0 | gedunin rank [2, 6]: 107

CCCC(=O)Nc1ncnc2c1ncn2[C@@H]1O[C@@H]2COP(=O)(O)O[C@H]2[C@H]1OC(=O)CCC [bucladesine]
celastrol score (connectivity score) [1, 3]: 0 | gedunin score (connectivity score) [2, 5]: −0.144

O=C(/C=C/c1ccc(O)c(O)c1)c1ccc(O)cc1O [butein]
celastrol score (connectivity score) [1, 3]: 0.295 | gedunin score (connectivity score) [2, 5]: 0.45

Clc1ccc(C(c2ccc(Cl)cc2)n2cc[n+](CC(OCc3ccc(Cl)cc3Cl)c3ccc(Cl)cc3Cl)c2)cc1 (stereo not drawn) [calmidazolium]
celastrol score (connectivity score) [1, 3]: 0.334 | gedunin score (connectivity score) [2, 5]: 0.619

NC(=O)N1c2ccccc2C=Cc2ccccc21 [carbamazepine]
celastrol score (connectivity score) [1, 3]: 0.339 | gedunin score (connectivity score) [2, 5]: 0.407

Cc1ccc(-c2cc(C(F)(F)F)nn2-c2ccc(S(N)(=O)=O)cc2)cc1 [celecoxib]
celastrol score (connectivity score) [1, 3]: −0.01 | gedunin score (connectivity score) [2, 5]: 0.114

CN(C)CCCN1c2ccccc2Sc2ccc(Cl)cc21 [chlorpromazine]
celastrol score (connectivity score) [1, 3]: 0.08 | gedunin score (connectivity score) [2, 5]: 0.218

CCCNC(=O)NS(=O)(=O)c1ccc(Cl)cc1 [chlorpropamide]
celastrol score (connectivity score) [1, 3]: 0 | gedunin score (connectivity score) [2, 5]: 0

CCOC(=O)C(C)(C)Oc1ccc(Cl)cc1 [clofibrate]
celastrol score (connectivity score) [1, 3]: 0 | gedunin score (connectivity score) [2, 5]: 0

Clc1ccccc1C(c1ccccc1)(c1ccccc1)n1ccnc1 [clotrimazole]
celastrol score (connectivity score) [1, 3]: 0.557 | gedunin score (connectivity score) [2, 5]: 0.577

[Cl][Co][Cl] [cobalt chloride]
celastrol score (connectivity score) [1, 3]: 0.269 | celastrol rank [1, 4]: 48 | gedunin score (connectivity score) [2, 5]: 0.1 | gedunin rank [2, 6]: 72

COc1cc2c(c(OC)c1OC)-c1ccc(OC)c(=O)cc1[C@@H](NC(C)=O)CC2 [colchicine]
celastrol score (connectivity score) [1, 3]: 0.391 | gedunin score (connectivity score) [2, 5]: 0.192

C=C[C@@]1(C)CC(=O)[C@]2(O)[C@@]3(C)[C@@H](O)CCC(C)(C)[C@@H]3[C@H](O)[C@H](OC(C)=O)[C@@]2(C)O1 [colforsin]
celastrol score (connectivity score) [1, 3]: 0 | gedunin score (connectivity score) [2, 5]: 0

O=S(=O)([O-])[O-].[Cu+2] [copper sulfate]
celastrol rank [1]: 68 | celastrol score (connectivity score) [1]: 0.113 | gedunin rank [2]: 78 | gedunin score (connectivity score) [2]: 0.066

CN1CCN(CCCN2c3ccccc3Sc3ccc(C(F)(F)F)cc32)CC1 [trifluoperazine, reference compound]
gedunin score (connectivity score) [2, 5]: 0.559
